Measurements published in ChEMBL document CHEMBL1201862, “PubChem BioAssay data set” (2004).
Activity calls are given as the source filed them.

Legend:
Cytochrome P450 3A4 = Cytochrome P450 3A4 (Homo sapiens, UniProt P08684);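 also: CYP3A4 tested as one member of a cytochrome P450 panel screen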
Cytochrome P450 2C19 = Cytochrome P450 2C19 (Homo sapiens, UniProt P33261); experiment: Cytochrome panel assay with activity outcomes. Panel member name: p450-cyp2c19 Compounds with AC50 equal or less than 10 uM are considered active; assay type: functional
[1] = molecular target: T1, Heat shock factor protein 1 (Mus musculus, UniProt P38532); experiment: decrease of HSF1-responsive luciferase luminescence – cell-based, NIH3T3, dose retest, confirmation (AID 2382); assay type: functional;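 also: NIH3T3 fibroblasts with HSF1-driven luciferase reporter stressed by proteasome inhibitor MG132; luminescence from HSF1-driven luciferase expression after 8 hours of MG132 stress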
T1 sequence (P38532 whole entry): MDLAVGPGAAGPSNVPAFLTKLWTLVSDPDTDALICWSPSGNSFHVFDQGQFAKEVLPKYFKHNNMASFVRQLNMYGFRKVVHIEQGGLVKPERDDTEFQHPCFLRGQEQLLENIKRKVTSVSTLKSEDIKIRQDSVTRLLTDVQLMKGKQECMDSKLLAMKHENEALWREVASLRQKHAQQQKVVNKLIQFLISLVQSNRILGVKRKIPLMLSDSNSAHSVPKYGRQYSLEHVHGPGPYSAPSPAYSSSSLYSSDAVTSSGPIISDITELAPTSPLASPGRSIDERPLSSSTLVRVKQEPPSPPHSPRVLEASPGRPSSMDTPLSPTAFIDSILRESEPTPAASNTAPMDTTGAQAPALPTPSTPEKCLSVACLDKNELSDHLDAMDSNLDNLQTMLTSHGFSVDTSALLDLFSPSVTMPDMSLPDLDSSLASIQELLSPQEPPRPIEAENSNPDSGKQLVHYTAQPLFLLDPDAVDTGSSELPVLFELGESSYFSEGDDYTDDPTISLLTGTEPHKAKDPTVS

Cytochrome P450 2D6 = Cytochrome P450 2D6 (Homo sapiens, UniProt P10635);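 also: CYP2D6 member of a cytochrome P450 panel assay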
Cytochrome P450 1A2 = molecular target: T2, Cytochrome P450 1A2 (Homo sapiens, UniProt P05177);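 also: PubChem cytochrome P450 panel assay, CYP1A2 panel member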
T2 sequence (P05177 whole entry): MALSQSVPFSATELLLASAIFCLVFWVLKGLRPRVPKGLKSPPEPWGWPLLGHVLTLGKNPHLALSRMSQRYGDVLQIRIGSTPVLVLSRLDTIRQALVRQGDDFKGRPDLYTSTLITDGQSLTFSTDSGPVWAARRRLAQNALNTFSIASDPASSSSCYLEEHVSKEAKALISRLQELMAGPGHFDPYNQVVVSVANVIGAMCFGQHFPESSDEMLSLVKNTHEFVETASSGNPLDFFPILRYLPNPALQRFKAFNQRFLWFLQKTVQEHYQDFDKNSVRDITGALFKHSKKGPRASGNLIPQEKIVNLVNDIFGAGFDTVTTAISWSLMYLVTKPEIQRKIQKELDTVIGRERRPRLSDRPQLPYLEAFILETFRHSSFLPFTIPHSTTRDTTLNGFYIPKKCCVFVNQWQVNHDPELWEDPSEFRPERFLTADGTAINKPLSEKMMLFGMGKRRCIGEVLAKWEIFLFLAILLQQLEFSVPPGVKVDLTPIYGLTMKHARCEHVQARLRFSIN

[2] = test system: Streptococcus sp. 'group A'; experiment: Streptococcus pyogenes SK(-)GAS viability under kanamycin – luminescence, BacTiterGlo, confirmation, counter-screen for streptokinase expression inhibitor project, dose response (AID 1900); assay type: functional, organism-based
Streptococcus = experiment: GAS UMAA2166 growth inhibition – luminescence, BacTiterGlo, counter-screen for streptokinase expression inhibitor project, dose response (AID 1915); assay type: functional, organism-based;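 also: potency for reduction of bacterial viability or growth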

Cytochrome P450 2C19, sequence (P33261 whole entry): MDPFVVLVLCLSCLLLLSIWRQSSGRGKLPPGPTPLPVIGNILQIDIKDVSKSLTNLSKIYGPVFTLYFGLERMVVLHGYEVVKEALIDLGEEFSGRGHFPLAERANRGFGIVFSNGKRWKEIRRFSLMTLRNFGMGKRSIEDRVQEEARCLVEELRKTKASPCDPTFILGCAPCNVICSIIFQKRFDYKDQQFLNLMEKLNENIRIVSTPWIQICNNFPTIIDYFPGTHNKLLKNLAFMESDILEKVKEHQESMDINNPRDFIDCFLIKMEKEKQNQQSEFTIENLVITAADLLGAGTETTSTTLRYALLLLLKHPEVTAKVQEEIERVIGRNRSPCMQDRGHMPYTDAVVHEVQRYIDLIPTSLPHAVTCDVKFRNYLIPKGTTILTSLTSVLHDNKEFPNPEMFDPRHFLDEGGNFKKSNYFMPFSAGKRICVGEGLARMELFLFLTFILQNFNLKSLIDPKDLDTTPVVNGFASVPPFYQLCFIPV
Cytochrome P450 2D6, sequence (P10635 whole entry): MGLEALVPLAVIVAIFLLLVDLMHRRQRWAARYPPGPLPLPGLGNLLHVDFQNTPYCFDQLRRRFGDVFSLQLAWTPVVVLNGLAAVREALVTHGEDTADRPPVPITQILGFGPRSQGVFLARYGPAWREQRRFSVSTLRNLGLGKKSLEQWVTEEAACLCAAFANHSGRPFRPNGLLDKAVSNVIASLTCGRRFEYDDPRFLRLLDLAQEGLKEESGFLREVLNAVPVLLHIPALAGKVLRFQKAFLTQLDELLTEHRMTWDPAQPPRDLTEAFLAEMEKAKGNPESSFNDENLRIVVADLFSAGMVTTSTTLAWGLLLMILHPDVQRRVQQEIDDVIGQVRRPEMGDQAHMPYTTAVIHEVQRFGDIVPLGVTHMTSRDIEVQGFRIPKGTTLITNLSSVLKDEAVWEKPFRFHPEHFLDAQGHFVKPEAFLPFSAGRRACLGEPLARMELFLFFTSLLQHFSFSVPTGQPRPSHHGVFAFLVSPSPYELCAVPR
Cytochrome P450 3A4, sequence (P08684 whole entry): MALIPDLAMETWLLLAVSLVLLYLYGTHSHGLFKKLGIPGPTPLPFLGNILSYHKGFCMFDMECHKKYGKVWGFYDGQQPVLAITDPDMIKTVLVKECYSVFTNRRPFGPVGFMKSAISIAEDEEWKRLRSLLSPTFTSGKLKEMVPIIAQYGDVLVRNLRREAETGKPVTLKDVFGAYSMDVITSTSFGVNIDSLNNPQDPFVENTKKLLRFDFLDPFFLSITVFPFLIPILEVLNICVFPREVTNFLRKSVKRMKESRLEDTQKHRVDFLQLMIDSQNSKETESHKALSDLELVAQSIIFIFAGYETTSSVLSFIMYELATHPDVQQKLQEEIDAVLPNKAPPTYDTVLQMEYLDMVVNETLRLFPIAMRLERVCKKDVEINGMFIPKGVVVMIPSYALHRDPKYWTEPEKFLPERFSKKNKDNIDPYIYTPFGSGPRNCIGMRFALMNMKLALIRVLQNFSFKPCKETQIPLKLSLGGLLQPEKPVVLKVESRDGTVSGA

O=C1CCC[C@@H](C(C(=O)OCc2ccccc2)C(=O)OCc2ccccc2)C1
AC50 (Cytochrome P450 3A4): 3.98 µM (inconclusive)
AC50 (Cytochrome P450 2C19; read-out: AC50): 3.98 µM (inconclusive)

O=C(CN1CCN(Cc2ccccc2)CC1)c1ccc(Br)cc1
AC50 (Cytochrome P450 3A4): 14.1 µM (inconclusive)
AC50 (Cytochrome P450 2C19; read-out: AC50): 14.1 µM (inconclusive)

O=C(O)C1C2C=CC(O2)C1C(=O)Nc1ccc2c(c1)OCCO2 (configuration not stated)
EC50 [1]: 25.9 µM (active)

Cc1ccc(OCC(=O)Nc2cnc(O)nc2O)cc1C
EC50 [1]: > 195 µM (not active)

O=C(NCCN1CCN(C(=O)c2cc3ccccc3oc2=O)CC1)c1cc2ccccc2oc1=O
AC50 (Cytochrome P450 3A4): 14.1 µM (inconclusive)
AC50 (Cytochrome P450 2C19; read-out: AC50): 3.98 µM (inconclusive)

COc1ccccc1-c1cncnc1N(C)Cc1ccco1
AC50 (Cytochrome P450 2D6): 25.1 µM (inconclusive)

COc1ccccc1CN1CCCC(CN(CCN(C)C)C(=O)C2CCCC2)C1 (configuration not stated)
EC50 [1]: > 195 µM (not active)

O=C(c1ccccc1)N1CCN(CC2CC=CCC2)CC1 (configuration not stated)
EC50 [1]: > 195 µM (not active)

O=S(=O)(Nc1cccc(Oc2cnccn2)c1)c1ccc(F)cc1
EC50 [1]: > 195 µM (not active)

N#Cc1cccc(-c2cncnc2NCc2ccccc2)c1
AC50 (Cytochrome P450 2D6): 20 µM (inconclusive)

CCN(CC)S(=O)(=O)c1ccc(C(=O)Nc2ncn(Cc3ccccc3)n2)cc1
AC50 (Cytochrome P450 2C19; read-out: AC50): 25.1 µM (inconclusive)

CC1(C)OC(=O)N(Cc2ccco2)C1(C)O (configuration not stated)
AC50 (Cytochrome P450 2C19; read-out: AC50): 14.1 µM (inconclusive)

CCCn1c(-c2cccs2)nc2nc3ccccc3nc21
AC50 (Cytochrome P450 2D6): 28.2 µM (inconclusive)

COc1ccc(C2=Nc3c(c(=O)n(C)c(=O)n3C)C(C(F)(F)F)(C(F)(F)F)N2)cc1
AC50 (Cytochrome P450 1A2): 11.2 µM (inconclusive)
AC50 (Cytochrome P450 3A4): 14.1 µM (inconclusive)

Cc1ccc([C@@]2(C)CC/C(=N/N=C3\CC[C@](C)(c4ccc(C)c(C)c4)c4cc(C)c(C)cc43)c3cc(C)c(C)cc32)cc1C
AC50 (Cytochrome P450 2C19): inconclusive

COc1ccc(COC(=O)N/N=C2/C[C@@H](O)[C@@H](O)[C@@H]3[C@@H]4C(=O)N(c5cccc(Oc6ccccc6)c5)C(=O)[C@H]4CC[C@@H]23)cc1
AC50 (Cytochrome P450 2D6): 3.16 µM (inconclusive)

CCCCNC(=O)C(=O)c1ccccc1NC(C)=O
AC50 (Cytochrome P450 1A2): 39.8 µM (inconclusive)
AC50 (Cytochrome P450 2C19; read-out: AC50): 22.4 µM (inconclusive)

c1ccc(C[C@@H](c2ccccc2)N2CCCCC2)cc1
AC50 (Cytochrome P450 1A2): 15.8 µM (inconclusive)
AC50 (Cytochrome P450 3A4): 31.6 µM (inconclusive)
AC50 (Cytochrome P450 2C19; read-out: AC50): 7.94 µM (inconclusive)

CCOc1ccc(C(=O)COC(=O)Cc2nnc(O)c3ccccc23)cc1
EC50 [1]: > 195 µM (not active)

COC(=O)CSc1ccc2nnc(-c3ccc(F)cc3)n2n1
AC50 (Cytochrome P450 2C19; read-out: AC50): 28.2 µM (inconclusive)

Cc1c(C2=CCN(S(=O)(=O)c3ccc(Br)cc3)CC2)c2ccccc2n1C
EC50 [1]: > 195 µM (not active)

Cc1cc(Nc2ccc3c(c2)OCCO3)c2cc(Cl)ccc2n1
EC50 [1]: 17.2 µM (active)

Nc1cc(N)nc(SCC(=O)c2ccccc2)n1
AC50 (Cytochrome P450 3A4): 35.5 µM (inconclusive)
AC50 (Cytochrome P450 2C19; read-out: AC50): 7.08 µM (inconclusive)

CN(C)c1ccc(-c2noc(C3CCN(C(=O)Nc4ccc(Cl)cc4)CC3)n2)cc1
EC50 [1]: > 195 µM (not active)

CCOC(=O)N1CCN(CC(O)COC2CC(C)CC(C)(C)C2)CC1 (configuration not stated)
EC50 [1]: > 195 µM (not active)

CCOC(=O)c1cc2c(C(F)(F)F)cc(-c3ccccc3)nc2o1
AC50 (Cytochrome P450 2C19; read-out: AC50): 25.1 µM (inconclusive)

O=C(O)CN1CCN(Cc2ccc(F)cc2Cl)C1=O
AC50 (Cytochrome P450 2D6): 20 µM (inconclusive)

Cc1ccc(-n2c(C)cc(/C=C(\C#N)C(=O)NCC3CCCO3)c2C)cc1 (configuration not stated)
AC50 (Cytochrome P450 2D6): 14.1 µM (inconclusive)
AC50 (Cytochrome P450 3A4): 31.6 µM (inconclusive)

N[C@H](CCCC(=O)O)C(=O)O
AC50 (Cytochrome P450 2C19): inconclusive

CCCC(=O)Nc1c2c(nn1-c1ccc(C)cc1C)CSC2
AC50 (Cytochrome P450 2D6): 28.2 µM (inconclusive)
AC50 (Cytochrome P450 1A2): 12.6 µM (inconclusive)

COC(=O)N1CCC2(CCN(Cc3ccc(C#N)cc3)CC2)CC1
AC50 (Cytochrome P450 2C19; read-out: AC50): 0.1 µM (inconclusive)

CCOc1ccc(N2CC(C(=O)NCc3cccc(C)c3)CC2=O)cc1 (configuration not stated)
AC50 (Cytochrome P450 1A2): 14.1 µM (inconclusive)

COc1ccc(C2C(C#N)=C(N)N(Nc3ccccc3)C3=C2C(=O)CC(C)(C)C3)cc1C (configuration not stated)
AC50 (Cytochrome P450 1A2): 39.8 µM (inconclusive)

Cc1noc(C)c1-c1nccc(NCCN2CCOCC2)n1
AC50 (Cytochrome P450 2D6): 20 µM (inconclusive)
AC50 (Cytochrome P450 3A4): 20 µM (inconclusive)

CC(=O)NC1(C(F)(F)F)C(=O)N(Cc2ccccc2)C2=C1C(=O)CC(C)(C)C2 (configuration not stated)
AC50 (Cytochrome P450 3A4): 14.1 µM (inconclusive)
AC50 (Cytochrome P450 2C19; read-out: AC50): 15.8 µM (inconclusive)

COc1cc(N)c(Cl)cc1C(=O)N[C@@H]1CN2CCC1CC2
AC50 (Cytochrome P450 2D6): 39.8 µM (inconclusive)

C=CC[C@@H]1C=C[C@H](O/N=C(\C)CCN2CCc3nc(CC)c(CC)cc3C2)[C@H](CO)O1
AC50 (Cytochrome P450 2D6): 3.98 µM (inconclusive)

CCCCSc1nc(C)cc(N=C(S)Nc2ccc(OC)cc2)n1
AC50 (Cytochrome P450 1A2): 4.47 µM (inconclusive)

O=C(NCCCN1CCCCCC1)[C@@H](c1ccccc1)C1CCCCC1
AC50 (Cytochrome P450 1A2): 31.6 µM (inconclusive)

FC(F)(F)c1cc(-c2ccco2)nc(NCc2cccs2)n1
AC50 (Cytochrome P450 2D6): 20 µM (inconclusive)
AC50 (Cytochrome P450 2C19; read-out: AC50): 1.26 µM (inconclusive)

Cc1ccc(-n2c(=O)cc(N3CCN(Cc4ccccc4)CC3)[nH]c2=O)cc1
EC50 [1]: > 195 µM (not active)

CN1CCN(c2ncnc3ccc(-c4cccc(NS(C)(=O)=O)c4)cc23)CC1
AC50 (Cytochrome P450 1A2): 25.1 µM (inconclusive)
AC50 (Cytochrome P450 3A4): 12.6 µM (inconclusive)

O=S(=O)(c1ccccc1)N1CCC2(CC1)CN(c1ccccn1)C2
AC50 (Cytochrome P450 2D6): 20 µM (inconclusive)
AC50 (Cytochrome P450 3A4): 12.6 µM (inconclusive)
AC50 (Cytochrome P450 2C19; read-out: AC50): 10 µM (inconclusive)

Cc1c(C=O)c2ccccn2c1C(=O)c1ccncc1
AC50 (Cytochrome P450 2D6): 25.1 µM (inconclusive)
AC50 (Cytochrome P450 3A4): 10 µM (inconclusive)

Cc1nc(C)c(-c2nnc(-c3cccc(S(=O)(=O)N(C)C)c3)o2)cc1C(=O)NN
EC50 [1]: > 195 µM (not active)

O=C(c1ccc(CN2CCc3ccccc3C2)cc1)N1CCc2ccccc2C1
AC50 (Cytochrome P450 3A4): 3.98 µM (inconclusive)

CCOCCn1c(SCC(=O)OCc2ccccc2)nc2c1c(=O)[nH]c(=O)n2C
EC50 [1]: > 195 µM (not active)

CCNc1ncc2nc(-c3cccs3)c(=O)n(CCc3ccccc3)c2n1
AC50 (Cytochrome P450 2D6): 20 µM (inconclusive)
AC50 (Cytochrome P450 3A4): 15.8 µM (inconclusive)

CN(C)c1ncc2nc(-c3ccc(F)cc3)c(=O)n(CCC#N)c2n1
AC50 (Cytochrome P450 2D6): 0.501 µM (inconclusive)
AC50 (Cytochrome P450 1A2): 1.26 µM (inconclusive)

COc1cccc(-c2cc(NCc3cnc(C)cn3)ncn2)c1
AC50 (Cytochrome P450 2C19; read-out: AC50): 0.398 µM (inconclusive)

Cn1c(=O)c2nc(CCS)[nH]c2n(C)c1=O
AC50 (Cytochrome P450 3A4): 10 µM (inconclusive)

O=C(c1cnc(N2CCN(c3ncccn3)CC2)c2ccccc12)N1CCN(c2ccccn2)CC1
AC50 (Cytochrome P450 1A2): 0.0251 µM (inconclusive)

CC(C)(C)C1CCC2(CC1)CCN(CCCN1CCOCC1)CC2
AC50 (Cytochrome P450 2D6): 3.98 µM (inconclusive)

CC(C)CCNC(=O)c1ccc2c(SCC(=O)O)c3c(nc2c1)CCC3
EC50 [1]: > 195 µM (not active)

CC12CCC3C(CC=C4CC5(CCC43C)OCCO5)C1CCC2=O (configuration not stated)
EC50 [1]: > 195 µM (not active)

Cc1cc(/C=C2\SC(=O)NC2=O)c(C)n1-c1ccc(N2CCOCC2)cc1
EC50 [2]: 1.32 µM (active)
EC50 (Streptococcus): 4.72 µM (active)

CC(O)(CS(=O)(=O)c1cccc(C(F)(F)F)c1)C(=O)Nc1ccc(C(F)(F)F)cc1 (configuration not stated)
AC50 (Cytochrome P450 2D6): 0.0224 µM (inconclusive)
